Results taken from US10294202B2, “Pyrrolidinones as herbicides” (FMC Corporation, priority 2013, dated 2019).

Legend:
crabgrass, large = assay: Test C pre-/postemergence herbicide test; type: in vivo, Digitaria sanguinalis
Description: (§1) Seeds of plant species selected from blackgrass (Alopecurus myosuroides), ryegrass, Italian (Italian ryegrass, Lolium multiflorum), wheat (winter wheat, Triticum aestivum), galium (catchweed bedstraw, Galium aparine), corn (Zea mays), crabgrass, large (large crabgrass, Digitaria sanguinalis), foxtail, giant (giant foxtail, Setaria faberii), johnsongrass (Sorghum halepense), lambsquarters (Chenopodium album), morningglory (Ipomoea coccinea), nutsedge, yellow (yellow nutsedge, Cyperus esculentus), pigweed (Amaranthus retroflexus), ragweed (common ragweed, Ambrosia elatior), soybean (Glycine max), barnyardgrass (Echinochloa crus-galli), oilseed rape (Brassica napus), waterhemp (common waterhemp, Amaranthus rudis), kochia (Kochia scoparia), oat, wild (wild oat, Avena fatua), surinam grass (Brachiaria decumbens), foxtail, green (green foxtail, Setaria viridis), goosegrass (Eleusine indica), bromegrass, downy (downy bromegrass, Bromus tectorum), nightshade (eastern black nightshade, Solanum ptycanthum), cocklebur (common cocklebur, Xanthium strumarium), cupgrass, woolly (woolly cupgrass, Eriochloa villosa), bermudagrass (Cynodon dactylon), sunflower, (common oilseed sunflower, Helianthus annuus), Russian thistle (Salsola kali) and velvetleaf (Abutilon theophrasti) were planted into a blend of loam soil and sand and treated preemergence with test chemicals formulated in a non-phytotoxic solvent mixture which included a surfactant. At the same time, plants selected from these crop and weed species and also barley (winter barley, Hordeum vulgare), […]), chickweed (common chickweed, Stellaria media), deadnettle (henbit deadnettle, Lamium amplexicaule), and canarygrass (littleseed canarygrass, Phalaris minor) were planted in pots containing Redi-Earth® planting medium (Scotts Company, 14111 Scottslawn Road, Marysville, Ohio 43041) comprising spaghnum peat moss, vermiculite, wetting agent and starter nutrients and treated with postemergence applications of test chemicals formulated in the same manner. Plants ranged in height from 2 to 18 cm (1- to 4-leaf stage) for postemergence treatments. Treated plants and controls were maintained in a greenhouse for 13 to 15 days, after which time all species were compared to controls and visually evaluated. Plant response ratings, summarized in Table C, are based on a scale of 0 to 100 where 0 is no effect and 100 is complete control. A dash (-) response means no test result.

pigweed = assay: Test C pre-/postemergence herbicide test; type: in vivo, Amaranthus retroflexus
In short: (§2)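 Two application timings ran in parallel with identically formulated test chemicals (non-phytotoxic solvent, surfactant included): spray on seeded loam–sand soil, and spray on emerged plants 2 to 18 cm high. Evaluation at 13 to 15 days compared each species with controls, rated from 0 up to 100.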

nutsedge, yellow = assay: Test C pre-/postemergence herbicide test; type: in vivo, Cyperus esculentus
In short: as §2

barnyardgrass = assay: Test C pre-/postemergence herbicide test; type: in vivo, Echinochloa crus-galli
Description: as §1

blackgrass = assay: Test C pre-/postemergence herbicide test; type: in vivo, Alopecurus myosuroides
In short: as §2

wheat = assay: Test A pre-/postemergence herbicide test; type: in vivo, Triticum aestivum; conditions: Postemergence
In short: (§3)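 Directed soil spray to seeded pots (preemergence) or spray onto one- to two-leaf seedlings 2–10 cm tall (postemergence); loam/sand substrate throughout. Evaluated visually after about 10 days against untreated plants, 0 = no effect, 100 = complete control.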

lambsquarters = assay: Test C pre-/postemergence herbicide test; type: in vivo, Chenopodium album
Description: as §1

giant foxtail = assay: Test A pre-/postemergence herbicide test; type: in vivo, Setaria faberii
In short: as §3

oilseed rape = assay: Test C pre-/postemergence herbicide test; type: in vivo, Brassica napus
In short: as §2

[1] = Preemergence, 31 g ai/ha, scale 0 to 100, 0 is no effect and 100 is complete control
[2] = Preemergence, 62 g ai/ha, scale 0 to 100 (0 no effect, 100 complete control)
[3] = Preemergence, 125 g ai/ha, scale 0 to 100 (0 no effect, 100 complete control)
[4] = Preemergence, 62 g ai/ha, scale 0 to 100
[5] = Postemergence, 125 g ai/ha, 0 to 100 scale, 0 is no effect, 100 is complete control
[6] = preemergence, 500 g ai/ha, 0 to 100 scale, 0 is no effect and 100 is complete control
[7] = Postemergence, 8 g ai/ha, scale 0 to 100 (0 no effect, 100 complete control)
[8] = Postemergence, 16 g ai/ha, scale 0 to 100 (0 no effect, 100 complete control)
[9] = Postemergence, 31 g ai/ha, scale 0 to 100 (0 no effect, 100 complete control)
[10] = Postemergence, 62 g ai/ha, scale 0 (no effect) to 100 (complete control)
[11] = Preemergence, 8 g ai/ha, scale 0 to 100
[12] = Preemergence, 16 g ai/ha, scale 0 to 100

O=C1NCC(c2cccc(C(F)F)c2)C1C(=O)Nc1cccc(F)c1F (racemic) [Compound 211]
30: Barnyardgrass plant response rating (barnyardgrass; [1]) | Plant response rating, Wheat (wheat; 125 g ai/ha, 0 to 100 scale, 0 is no effect, 100 is complete control)
70: Plant response rating (scale of 0 to 100), Pigweed (pigweed; Preemergence, 250 g ai/ha) | Plant response rating, Foxtail, Giant (giant foxtail; [5])
20: Plant response rating, Blackgrass (blackgrass; [4])
65: Plant response rating, Barnyardgrass (barnyardgrass; [4])
100: Crabgrass, Large plant response rating (crabgrass, large; [1]) | Lambsquarters plant response rating (lambsquarters; [1]) | Plant response rating, Lambsquarters (lambsquarters; [3]) | Plant response rating (scale of 0 to 100), Lambsquarters (lambsquarters; Preemergence, 250 g ai/ha)
0: Pigweed plant response rating (pigweed; [2]) | Plant response rating, Pigweed (pigweed; [3]) | Nutsedge, Yellow plant response rating (nutsedge, yellow; [1]) | Nutsedge, Yellow plant response rating (nutsedge, yellow; [2]) | Plant response rating, Nutsedge, Yellow (nutsedge, yellow; [3]) | Blackgrass plant response rating (blackgrass; [1]) | Oilseed Rape plant response rating (oilseed rape; [1])
90: Plant response rating (scale of 0 to 100; 0 is no effect, 100 is complete control), Barnyardgrass (barnyardgrass; Preemergence, 250 g ai/ha) | Plant response rating (scale of 0 to 100), Blackgrass (blackgrass; Preemergence, 250 g ai/ha) | Foxtail, Giant plant response rating (0 to 100 scale, 0 is no effect, 100 is complete control) (giant foxtail; Postemergence, 500 g ai/ha) | Plant response rating, Foxtail, Giant (giant foxtail; [6]) | Plant response rating, Oilseed Rape (oilseed rape; [3]) | Plant response rating (scale of 0 to 100), Oilseed Rape (oilseed rape; Preemergence, 250 g ai/ha)
10: Plant response rating (scale of 0 to 100), Nutsedge, Yellow (nutsedge, yellow; Preemergence, 250 g ai/ha)
85: Plant response rating, Barnyardgrass (barnyardgrass; [3]) | Plant response rating, Blackgrass (blackgrass; [3]) | Lambsquarters plant response rating (lambsquarters; [2])
80: Wheat plant response rating (0 to 100 scale, 0 is no effect, 100 is complete control) (wheat; 500 g ai/ha) | Plant response rating, Foxtail, Giant (giant foxtail; 125 g ai/ha, visual rating, 0 to 100 scale, 0 no effect, 100 complete control, approximately 10 days, preemergence)
35: Oilseed Rape plant response rating (oilseed rape; [2])
95: Crabgrass, Large plant response rating (crabgrass, large; [2]) | Plant response rating, Crabgrass, Large (crabgrass, large; [3]) | Plant response rating (scale of 0 to 100), Crabgrass, Large (crabgrass, large; Preemergence, 250 g ai/ha)

CN1CC(c2ccc(F)cc2)C(C(=O)Nc2cccc(F)c2F)C1=O (stereo not drawn) [Compound 271]
25: Pigweed plant response rating (pigweed; [2])
0: Plant response rating, Crabgrass, Large (crabgrass, large; [7]) | Plant response rating, Crabgrass, Large (crabgrass, large; [8]) | Pigweed plant response rating (pigweed; [1]) | Plant response rating, Pigweed (pigweed; [12]) | Plant response rating, Nutsedge, Yellow (nutsedge, yellow; [7]) | Plant response rating, Nutsedge, Yellow (nutsedge, yellow; [8]) | Plant response rating, Nutsedge, Yellow (nutsedge, yellow; [9]) | Plant response rating, Nutsedge, Yellow (nutsedge, yellow; [10]) | Nutsedge, Yellow plant response rating (nutsedge, yellow; [1]) | Nutsedge, Yellow plant response rating (nutsedge, yellow; [2]) | Plant response rating, Nutsedge, Yellow (nutsedge, yellow; [11]) | Plant response rating, Nutsedge, Yellow (nutsedge, yellow; [12]) | Plant response rating, Barnyardgrass (barnyardgrass; [7]) | Plant response rating, Barnyardgrass (barnyardgrass; [8]) | Plant response rating, Barnyardgrass (barnyardgrass; [9]) | Plant response rating, Barnyardgrass (barnyardgrass; [10]) | Plant response rating, Barnyardgrass (barnyardgrass; [11]) | Plant response rating, Blackgrass (blackgrass; [7]) | Plant response rating, Blackgrass (blackgrass; [8]) | Plant response rating, Blackgrass (blackgrass; [9]) | Plant response rating, Blackgrass (blackgrass; [10]) | Blackgrass plant response rating (blackgrass; [1]) | Plant response rating, Blackgrass (blackgrass; [11]) | Plant response rating, Wheat (wheat; 125 g ai/ha, visual rating on 0 to 100 scale (0 no effect, 100 complete control), approx. 10 days) | Lambsquarters plant response rating (lambsquarters; [1]) | Plant response rating, Lambsquarters (lambsquarters; [11]) | Plant response rating, Lambsquarters (lambsquarters; [12]) | Plant response rating, Oilseed Rape (oilseed rape; [7]) | Plant response rating, Oilseed Rape (oilseed rape; [8]) | Plant response rating, Oilseed Rape (oilseed rape; [9]) | Oilseed Rape plant response rating (oilseed rape; [1]) | Plant response rating, Oilseed Rape (oilseed rape; [11]) | Plant response rating, Oilseed Rape (oilseed rape; [12])
100: Crabgrass, Large plant response rating (crabgrass, large; [2])
20: Lambsquarters plant response rating (lambsquarters; [2]) | Plant response rating, Oilseed Rape (oilseed rape; [10]) | Oilseed Rape plant response rating (oilseed rape; [2])
30: Plant response rating, Pigweed (pigweed; [10])
90: Plant response rating, Crabgrass, Large (crabgrass, large; [12]) | Barnyardgrass plant response rating (barnyardgrass; [1]) | Plant response rating, Foxtail, Giant (giant foxtail; [5]) | Plant response rating, Foxtail, Giant (giant foxtail; Postemergence, 500 g ai/ha, 0 to 100 scale (0 no effect, 100 complete control)) | Plant response rating, Foxtail, Giant (giant foxtail; Preemergence, 125 g ai/ha, 0 to 100 scale where 0 is no effect and 100 is complete control) | Plant response rating, Foxtail, Giant (giant foxtail; [6])
45: Plant response rating, Lambsquarters (lambsquarters; [8])
10: Plant response rating, Pigweed (pigweed; [9]) | Plant response rating, Lambsquarters (lambsquarters; [7])
95: Crabgrass, Large plant response rating (crabgrass, large; [1]) | Barnyardgrass plant response rating (barnyardgrass; [2])
50: Plant response rating, Crabgrass, Large (crabgrass, large; [11]) | Blackgrass plant response rating (blackgrass; [2]) | Plant response rating, Lambsquarters (lambsquarters; [9])
75: Plant response rating, Barnyardgrass (barnyardgrass; [12])
80: Plant response rating, Wheat (wheat; 500 g ai/ha, 0 to 100 scale (0 no effect, 100 complete control))
55: Plant response rating, Lambsquarters (lambsquarters; [10])
5: Plant response rating, Crabgrass, Large (crabgrass, large; [9]) | Plant response rating, Crabgrass, Large (crabgrass, large; [10]) | Plant response rating, Pigweed (pigweed; [7]) | Plant response rating, Pigweed (pigweed; [8])
